ChEMBL document CHEMBL5042502, “Discovery of Potent and Selective 2-(Benzylthio)pyrimidine-based DCN1-UBC12 Inhibitors for Anticardiac Fibrotic Effects” (J Med Chem, 2022)
Activity calls are given as the source filed them. The calls are words filed in the database; no cut-off is given here.

Experiments:
[1] = target: T1, DCN1-like protein 1 (Homo sapiens, UniProt Q96GG9); assay: Inhibition of GST-tagged DCN1 (unknown origin) using AcUBE2M1-21 incubated for 30 mins by HTRF assay
Target sequence in this assay (Q96GG9 whole entry): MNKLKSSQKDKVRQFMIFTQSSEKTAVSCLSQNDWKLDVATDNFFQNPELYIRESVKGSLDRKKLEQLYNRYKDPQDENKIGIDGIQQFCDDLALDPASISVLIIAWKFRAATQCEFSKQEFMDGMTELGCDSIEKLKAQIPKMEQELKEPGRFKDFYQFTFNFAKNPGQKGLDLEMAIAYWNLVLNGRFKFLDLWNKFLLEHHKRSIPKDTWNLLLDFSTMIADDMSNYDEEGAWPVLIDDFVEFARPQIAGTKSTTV

[2] = Cytotoxicity against Sprague-Dawley rat cardiac fibroblast by MTT assay; type: toxicity, cell-based, Fibroblast of cardiac tissue; conditions: cardiac fibroblasts
[3] = target: T2, DCN1-like protein 5 (Homo sapiens, UniProt Q9BTE7); assay: Binding affinity to DCN5 (unknown origin) assessed as inhibitory constant
T2 sequence (Q9BTE7 whole entry): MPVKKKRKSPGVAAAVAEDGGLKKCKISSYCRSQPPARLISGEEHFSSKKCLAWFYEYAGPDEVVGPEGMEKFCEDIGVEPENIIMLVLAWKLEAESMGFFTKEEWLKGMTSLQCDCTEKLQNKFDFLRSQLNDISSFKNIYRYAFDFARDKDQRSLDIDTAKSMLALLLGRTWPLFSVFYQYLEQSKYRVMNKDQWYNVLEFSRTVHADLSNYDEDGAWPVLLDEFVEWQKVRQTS

[4] = target: T3, DCN1-like protein 3 (Homo sapiens, UniProt Q8IWE4); assay: Binding affinity to DCN3 (unknown origin) assessed as inhibitory constant
T3 sequence (Q8IWE4 whole entry): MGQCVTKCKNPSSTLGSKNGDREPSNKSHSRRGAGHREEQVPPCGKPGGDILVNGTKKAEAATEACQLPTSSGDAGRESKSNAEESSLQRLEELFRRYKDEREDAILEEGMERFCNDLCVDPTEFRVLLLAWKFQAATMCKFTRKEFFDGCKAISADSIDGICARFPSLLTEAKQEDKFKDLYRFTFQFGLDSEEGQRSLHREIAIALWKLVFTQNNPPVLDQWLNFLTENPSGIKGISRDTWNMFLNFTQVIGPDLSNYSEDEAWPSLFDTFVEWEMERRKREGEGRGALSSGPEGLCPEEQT

[5] = test system: Cardiac fibroblast; assay: Inhibition of DCN1 in Sprague-Dawley rat cardiac fibroblast assessed as suppression in DCN1-UBC12 interaction by measuring reduction in UBC12 level at 10 uM incubated for 5 hrs co-incubated with DCN1 antibody by co-immunoprecipitation pull down assay; type: cell-based
[6] = target: DCN1-like protein 2 (Homo sapiens, UniProt Q6PH85); assay: Binding affinity to DCN2 (unknown origin) assessed as inhibitory constant
[7] = target: T1, DCN1-like protein 1
Target sequence in this assay (Q96GG9 whole entry, looked up): as the sequence (Q96GG9 whole entry) above
Description: Binding affinity to DCN1 (unknown origin) assessed as change in entropy by MM-PBSA method

[8] = target: T1, DCN1-like protein 1; remark: listed apart in the source
Target sequence in this assay (Q96GG9 whole entry, looked up): as the sequence (Q96GG9 whole entry) above
Description: Binding affinity to DCN1 (unknown origin) assessed as Gibbs free energy change by MM-PBSA method

[9] = test system: Fibroblast of cardiac tissue; assay: Antifibrotic effect in SD rat cardiac fibroblast assessed as reduction in Ang II-induced activation of Nrf2 signaling pathway preincubated for 2 hrs followed by Ang II-stimulation and further incubated for 24 hrs by western blot analysis (reference value: 43 %); type: functional; conditions: time 26.0 hrs
[10] = test system: Fibroblast of cardiac tissue; assay: Antifibrotic effect in SD rat cardiac fibroblast assessed as reduction in Ang II-induced collagen I upregulation preincubated for 2 hrs followed by Ang II-stimulation and further incubated for 24 hrs by western blot analysis (reference value: 71 %); type: functional; conditions: time 26.0 hrs

Sequence of DCN1-like protein 2 (Q6PH85 whole entry): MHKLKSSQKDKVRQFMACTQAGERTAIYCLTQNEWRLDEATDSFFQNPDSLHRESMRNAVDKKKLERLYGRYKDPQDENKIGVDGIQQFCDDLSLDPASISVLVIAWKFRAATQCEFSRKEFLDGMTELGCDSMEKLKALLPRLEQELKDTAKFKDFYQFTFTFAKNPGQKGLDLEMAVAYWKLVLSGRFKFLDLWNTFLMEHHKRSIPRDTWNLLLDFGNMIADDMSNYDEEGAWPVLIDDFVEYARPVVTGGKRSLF

| SMILES | IC50 [1] | also measured |
| --- | --- | --- |
| COc1cc(-c2nc(SCC(=O)NC(=O)Nc3ccccc3)nc(Sc3nccs3)c2C#N)cc(OC)c1OC | 6180 nM |  |
| COc1cc(-c2nc(SCc3ccccc3)nc(Sc3nc(C)c(C)s3)c2C#N)cc(OC)c1OC | > 10000 nM |  |
| COc1ccc(-c2nc(SCc3ccc(C)cc3)nc(Sc3nccs3)c2C#N)cc1 | 21.2 nM |  |
| COc1cc(-c2nc(SCc3ccccc3)nc(Nc3cccc(Cl)c3)c2C#N)cc(OC)c1OC | 2390 nM |  |
| COc1cc(-c2nc(SCc3ccc4ccccc4c3)nc(Sc3nnnn3C)c2C#N)cc(OC)c1OC | 6.15 nM | IC50 [2]: 18900 nM |
| Cc1ccc(CSc2nc(Sc3nccs3)c(C#N)c(-c3ccc(C)cc3)n2)cc1 | 20.9 nM |  |
| Cc1ccc(CSc2nc(Sc3nccs3)c(C#N)c(-c3ccccc3)n2)cc1 | 2790 nM |  |
| COc1cc(-c2nc(SCc3ccccc3)nc(Sc3nnnn3C)c2C#N)cc(OC)c1OC | 36.4 nM |  |
| COc1cc(-c2nc(SCc3ccccc3)nc(Nc3ccc(Cl)cc3)c2C#N)cc(OC)c1OC | > 10000 nM |  |
| COc1cc(-c2nc(SCc3ccccc3)nc(NCc3nccs3)c2C#N)cc(OC)c1OC | > 10000 nM |  |
| C=CCSc1nc(Sc2nccs2)c(C#N)c(-c2cc(OC)c(OC)c(OC)c2)n1 | 36.9 nM |  |
| COC(=O)c1ccc(CSc2nc(Sc3nccs3)c(C#N)c(-c3cc(OC)c(OC)c(OC)c3)n2)cc1 | 5.36 nM |  |
| COc1cc(-c2nc(SCc3ccccc3)nc(Sc3nccs3)c2C#N)cc(OC)c1OC | 28.2 nM |  |
| COc1cc(-c2nc(SCc3cccc(C)c3)nc(Sc3nnnn3C)c2C#N)cc(OC)c1OC | 11.1 nM |  |
| COc1cc(-c2nc(SCc3ccc(Cl)cc3)nc(Sc3nnnn3CCN(C)C)c2C#N)cc(OC)c1OC | 25.3 nM |  |
| COc1ccc(-c2nc(SCc3ccc(C)cc3)nc(Sc3nccs3)c2C#N)cc1OC | 17.1 nM |  |
| COc1ccc(CSc2nc(Sc3nccs3)c(C#N)c(-c3cc(OC)c(OC)c(OC)c3)n2)cc1 | 2570 nM |  |
| Cc1ccc(CSc2nc(Sc3nccs3)c(C#N)c(-c3ccc(Br)cc3)n2)cc1 | 27.9 nM |  |

| SMILES | IC50 [1] | also measured |
| --- | --- | --- |
| COc1cc(-c2nc(SCc3ccncc3)nc(Sc3nccs3)c2C#N)cc(OC)c1OC | 653 nM |  |
| COc1cc(-c2nc(SCc3cccc(C)c3)nc(Sc3nnnn3CCN(C)C)c2C#N)cc(OC)c1OC | 12.4 nM |  |
| COc1cc(-c2nc(SCC(=O)Nc3ccccc3)nc(Sc3nccs3)c2C#N)cc(OC)c1OC | 8010 nM |  |
| COc1cc(-c2nc(SCc3ccccc3)nc(Sc3nnnn3CCN(C)C)c2C#N)cc(OC)c1OC | 28.1 nM |  |
| COc1cc(-c2nc(SCc3c(C)noc3C)nc(Sc3nccs3)c2C#N)cc(OC)c1OC | 412 nM |  |
| COc1cc(-c2nc(SCc3ccc(C)cc3)nc(Sc3nnnn3C)c2C#N)cc(OC)c1OC | 2.86 nM | IC50 [2]: 9970 nM |
| COc1cc(-c2nc(SCc3cccc(C(F)(F)F)c3)nc(Sc3nnnn3CCN(C)C)c2C#N)cc(OC)c1OC | 12.2 nM |  |
| COc1cc(-c2nc(SCc3ccc(C)cc3)nc(Sc3nnnn3CCN(C)C)c2C#N)cc(OC)c1OC | 9.37 nM | IC50 [2]: 26000 nM |
| COc1ccc(CSc2nc(Sc3nnnn3C)c(C#N)c(-c3cc(OC)c(OC)c(OC)c3)n2)cc1 | 31.2 nM |  |
| COc1ccc(Nc2nc(SCc3ccccc3)nc(-c3cc(OC)c(OC)c(OC)c3)c2C#N)cc1 | > 10000 nM |  |
| COc1ccc(CSc2nc(Sc3nnnn3CCN(C)C)c(C#N)c(-c3cc(OC)c(OC)c(OC)c3)n2)cc1 | 13.4 nM |  |
| COc1cc(-c2nc(SCc3ccc(C(C)(C)C)cc3)nc(Sc3nnnn3C)c2C#N)cc(OC)c1OC | 1220 nM |  |
| COc1cc(-c2nc(SCc3ccoc3C(F)(F)F)nc(Sc3nccs3)c2C#N)cc(OC)c1OC | 450 nM |  |
| COc1cc(-c2nc(SCc3ccccc3)nc(NC(C)(C)N3CCOCC3)c2C#N)cc(OC)c1OC | > 10000 nM |  |
| C#CCSc1nc(Sc2nnnn2C)c(C#N)c(-c2cc(OC)c(OC)c(OC)c2)n1 | 0.25 nM | -TdeltaS [7]: 10.8 kcal/mol; deltaG [8]: -10.3 kcal/mol |
| Cc1ccc(CSc2nc(Sc3nccs3)c(C#N)c(-c3c[nH]c4ccccc34)n2)cc1 | > 10000 nM |  |
| CCCSc1nc(Sc2nccs2)c(C#N)c(-c2cc(OC)c(OC)c(OC)c2)n1 | 258 nM |  |

Second part, led by results:

| IC50 [1] | SMILES | also measured |
| --- | --- | --- |
| 36.4 nM | COc1cc(-c2nc(SCc3ccc4ccccc4c3)nc(Sc3nccs3)c2C#N)cc(OC)c1OC | IC50 [2]: 22900 nM |
| 4130 nM | COc1ccc(CNc2nc(Sc3nnnn3C)cc(-c3cc(OC)c(OC)c(OC)c3)n2)cc1 |  |
| 42.2 nM | COc1cc(-c2nc(SCc3ccc(C)cc3)nc(Sc3nccs3)c2C#N)cc(OC)c1OC | IC50 [2]: 6150 nM |
| 29.1 nM | COc1cc(-c2nc(SCc3ccc(C(F)(F)F)cc3)nc(Sc3nnnn3C)c2C#N)cc(OC)c1OC |  |
| 41.1 nM | COc1cc(-c2nc(SCc3ccccc3)nc(Sc3nc(C)cs3)c2C#N)cc(OC)c1OC |  |
| 5.48 nM | COc1cc(-c2nc(SCc3cccc(C)c3)nc(Sc3nccs3)c2C#N)cc(OC)c1OC | IC50 [2]: 15600 nM |
| 463 nM | Cc1ccc(CSc2nc(Sc3nccs3)c(C#N)c(-c3ccccc3C)n2)cc1 |  |
| 1020 nM | Cc1ccc(CSc2nc(Sc3nccs3)c(C#N)c(-c3ccc(Oc4ccccc4)cc3)n2)cc1 |  |
| 2.25 nM | COc1cc(-c2nc(SCc3ccc4ccccc4c3)nc(Sc3nnnn3CCN(C)C)c2C#N)cc(OC)c1OC | IC50 [2]: 25800 nM |
| 25.8 nM | COc1cc(-c2nc(SCc3cccc(C(F)(F)F)c3)nc(Sc3nnnn3C)c2C#N)cc(OC)c1OC |  |
| 29.3 nM | COc1cc(-c2nc(SCc3cccc(C(F)(F)F)c3)nc(Sc3nccs3)c2C#N)cc(OC)c1OC |  |
| 100 nM | COc1cc(-c2nc(SCc3ccc(C(F)(F)F)cc3)nc(Sc3nccs3)c2C#N)cc(OC)c1OC |  |
| 60.5 nM | COc1cc(-c2nc(SCc3ccc(C(F)(F)F)cc3)nc(Sc3nnnn3CCN(C)C)c2C#N)cc(OC)c1OC |  |
| 11.5 nM | COc1cc(-c2nc(SCc3ccc(C(C)(C)C)cc3)nc(Sc3nccs3)c2C#N)cc(OC)c1OC |  |
| 611 nM | COc1cc(-c2nc(SCC3CCCCC3)nc(Sc3nccs3)c2C#N)cc(OC)c1OC |  |
| 18.3 nM | C#CCSc1nc(Sc2nccs2)c(C#N)c(-c2ccc(C)cc2)n1 | Ki [3]: 2140 nM; IC50 [2]: 12600 nM; Ki [4]: 592000 nM; inhibition [5]: Dose-Dependent Effect; Ki [6]: 66200 nM |
| 24.7 nM | COc1cc(-c2nc(SCc3ccc(Cl)cc3)nc(Sc3nccs3)c2C#N)cc(OC)c1OC |  |
| > 10000 nM | COc1cc(-c2nc(SCc3ccccc3)nc(Nc3ccc(O)c(Cl)c3)c2C#N)cc(OC)c1OC |  |
| 814 nM | COc1cc(-c2nc(SCc3nc4ccccc4[nH]3)nc(Sc3nccs3)c2C#N)cc(OC)c1OC |  |
| 1690 nM | Cc1ccc(CSc2nc(Sc3nccs3)c(C#N)c(-c3cccc(C)c3)n2)cc1 |  |
| 65.9 nM | Cc1ccc(CSc2nc(Sc3nccs3)c(C#N)c(-c3ccc(Cl)cc3)n2)cc1 |  |
| 9620 nM | COc1cc(-c2cc(Sc3nnnn3C)nc(SCc3ccc(Cl)cc3)n2)cc(OC)c1OC | inhibition [9]: inactive; -TdeltaS [7]: 10.6 kcal/mol; deltaG [8]: -7.12 kcal/mol; inhibition [10]: inactive |
| 890 nM | COc1cc(-c2nc(SCc3ccccc3C)nc(Sc3nccs3)c2C#N)cc(OC)c1OC |  |
| > 10000 nM | Cc1ccc(CSc2nc(Sc3nccs3)c(C#N)c(-c3cccs3)n2)cc1 |  |
| 2570 nM | COc1cc(-c2nc(SCCc3ccccc3)nc(Sc3nccs3)c2C#N)cc(OC)c1OC |  |
